Experimental data: patent US10611720B2, “Composition for preventing or treating hair loss including benzene diamine derivative” (UNIST(ULSAN NATIONAL INSTITUTE OF SCIENCE AND TECHNOLOGY), priority 2017, dated 2020)

Experiments:
SOX-9 [1] = test: SOX-9 expression in hDPC cells under oligomer Aβ (confocal fluorescence); assay type: cell-based, human; conditions: hDPCs, 2 nM oligomer Aβ + 25 μg/ml compound, 3 days; for SOX-9 expression (confocal imaging, in words): Example 4, compared with cells treated with oligomer Aβ; for SOX-9 expression (average fluorescence intensity): normal group 220±12, oligomer Aβ control 12±4
Method: (§1) As in Example 2, examination was performed by using oligomer Aβ as a cytotoxic material for hDPC.
(§2) At 3 days after treatment of the derivatives, the cells were fixed with 4% paraformaldehyde solution, and washed with PBS, and then fluorescence of ROI (relative fluorescence intensity) was measured at 488 nm by a confocal microscope (CONFOCAL, LSM710, Carl Zeiss, Germany) to examine SOX-9 and Cola17a1 expressions. As in Example 2, examination was performed by using oligomer Aβ as a cytotoxic material for hDPC.
as §2, with “fluorescence” for “fluorescence of ROI (relative fluorescence intensity)”, “488 nm/565” for “488”, “hDPC. […] COL17A1 expression was inhibited in the cells (control group C) treated with the cytotoxic oligomer Aβ, as compared with the normal group.” for “hDPC.”

COL17A1 = COL17A1 expression in hDPC cells under oligomer Aβ (confocal fluorescence); assay type: cell-based, human; conditions: hDPCs, 2 nM oligomer Aβ + 25 μg/ml compound, 3 days; normal group 143±11, oligomer Aβ control 16±6
Method: as §1, §2
as §2, with “fluorescence” for “fluorescence of ROI (relative fluorescence intensity)”, “488 nm/565” for “488”, “hDPC. […] COL17A1 expression was inhibited in the cells (control group C) treated with the cytotoxic oligomer Aβ, as compared with the normal group.” for “hDPC.”

[2] = tested on: human hair follicle dermal papilla cells (hDPCs); test: Cell viability (MTT) of hDPCs under oligomer Aβ-induced cytotoxicity; conditions: hDPCs treated with 2 nM oligomer Aβ and 25 μg/ml compound, 72 hours, as compared with group (N)
Method: In order to examine effects of the benzene diamine derivates of the present disclosure on improvement of cell viability of hair follicular cells, human hair follicle dermal papilla cells (hDPCs) were treated with the benzene diamine derivates, and cell viability was examined. […] Therefore, examination was performed by using oligomer Aβ as a toxic material for hDPC.
In detail, 2×10^3 hDPCs were dispensed in a multi 96-well plate containing a DMEM medium supplemented with 10% FBS, and cultured in a CO2 incubator (Thermo Scientific) at 37° C., 5% CO2 for 24 hours. Thereafter, experiments were performed by using a normal group which was treated with only cells, a control group which was a group treated with 10 μl of 2 nM oligomer Aβ (oAβ) previously synthesized, and an experimental group which is prepared by treating the normal group with the same concentration of oligomer Aβ and 25 μg/ml of each benzene diamine derivate sample in water or DMSO. To examine cell viability at 72 hours after treatment of the cell line with the sample, 20 μl of 2% MTT solution was added to the cell culture medium. 3 hours later, to terminate the reaction, the culture medium was removed by aspiration, and 50 μl of DMSO was added. 30 minutes later, the reaction was terminated. Thereafter, OD value was measured at 570 nm by using a microplate reader (BioTek, Synergy HT, USA).

[3] = tested on: APP/PS/Tau mouse (hair loss-induced mouse model); test: Hair growth change in hair loss mouse model, oral administration; assay type: in vivo; conditions: APP/PS/Tau mice, oral 100 μg/Kg twice a week for 2 months
Method: An experimental group was prepared by orally administering the control group with the benzene diamine derivate at a concentration of 100 μg/Kg/0.1 ml using a zonde twice a week, and then changes in appearance were observed.
In detail, APP/PS/Tau was purchased from Jackson lab (BAR HARBOR, USA), and APP/Tau female and APP/PSen1de9 purchased from Taconic (Hudson, USA) were cross-mated for 6 generations, and 4-month-old mouse models were obtained from F1. The mouse models were characterized by appearance of hair loss. The hair loss mouse models were divided into groups of 6 mice, and among the hair loss mouse models, the normal group and the control group were orally administered with a phosphate buffer carrier (PBS) for 2 months, and the experimental group was orally administered with 100 μl of N^1-(pyridin-2-ylmethyl)benzene-1,4-diamine (Compound 1) at a concentration of 100 μg/Kg twice a week for 2 months. Thereafter, changes in their appearance were compared.

SOX-2 = SOX-2 expression in skin of hair loss mouse model, oral administration; assay type: in vivo; conditions: APP/PS/Tau mice, oral 100 μg/Kg twice a week, 2 months
Method: (§3) Accordingly, the present inventors examined whether expressions of hair growth stimulating factors, SOX-2 and SOX-9 were increased in hair loss animal models by the benzene diamine derivates of the present disclosure. In order to examine SOX-2 and SOX-9 expressions inside skin tissues, APP/PS/Tau mouse which is a hair loss-induced mouse model was selected as a control group and C57BL6 mouse was selected as a normal group, as in Example 5. An experimental group was prepared by orally administering the control group with the benzene diamine derivate at a concentration of 100 μg/Kg/0.1 ml using a zonde twice a week. 2 months later, incision of the skin was performed under local anesthesia, and the skin tissues were fixed in 4% paraformaldehyde solution for 24 hours, and fixed in a plastic mold with O.C.T. Compound (SAKURA, USA) for cryostat sectioning. […] Thereafter, the plate was put on a slide glass and covered with a cover slide, and stored in a dark acrylic box, and fluorescence imaging was observed under a confocal microscope (LSM710, Carl Zeiss, Germany) by 405/488/565 nm laser. […]

SOX-9 [4] = test: SOX-9 expression in skin of hair loss mouse model, oral administration; assay type: in vivo; conditions: APP/PS/Tau mice, oral 100 μg/Kg twice a week, 2 months
Method: as §3

monomer/oligomer Aβ = test: Monomer/oligomer Aβ expression in skin of hair loss mouse model, oral administration; assay type: in vivo; conditions: APP/PS/Tau mice, oral 100 μg/Kg twice a week, 2 months

| SMILES | SOX-9 expression (confocal imaging, in words) (SOX-9 [1]) | SOX-9 expression (average fluorescence intensity) (SOX-9 [1]) | COL17A1 expression (average fluorescence intensity) (COL17A1) | cell viability [2] | hair loss (changes in appearance) [3] | SOX-2 expression in skin (SOX-2) | SOX-9 expression in skin (SOX-9 [4]) | monomer/oligomer Aβ expression in skin (monomer/oligomer Aβ) |
| --- | --- | --- | --- | --- | --- | --- | --- | --- |
| CC(=O)Nc1ccc(N(C)C)cc1 [Compound 4, N-(4-dimethylamino)phenyleneacetamide] | more strongly promoted the expression | 446±110 AFI | 2±1 AFI | 74±3% | – | – | – | – |
| CC(=O)Nc1ccc(NC(C)=O)cc1 [Compound 6, N,N-(1,4-phenylene)diacetate Amide] | – | 267±56 AFI | 226±34 AFI | 86±1% | – | – | – | – |
| c1ccc(CNc2ccc(N3CCOCC3)cc2)nc1 [Compound 2, 4-morpholino-N-(pyridin-2-ylmethyl)aniline] | – | 187±23 AFI | 234±31 AFI | 87±5% | – | – | – | – |
| CN(C)c1ccc(N)cc1 [Compound 3, N^1,N^1-dimethyl-1,4-phenylenediamine] | – | 157±21 AFI | 24±6 AFI | – | – | – | – | – |
| Nc1ccc(NCc2ccccn2)cc1 [Compound 1, N^1-(pyridin-2-ylmethyl)benzene-1,4-diamine] | – | 134±23 AFI | 152±13 AFI | 82±2% | remarkable improvement in hair loss | remarkably expressed close to the normal group | remarkably increased | decreased |
| CC(=O)Nc1ccc(N)cc1 [Compound 5, N-(4-aminophenyl)acetamide] | more strongly promoted the expression | 325±45 AFI | 3±1 AFI | 77±1% | – | – | – | – |
